Laboratory results taken from the NIST ThermoML archive (doi:10.1016/j.jct.2009.11.014).
Numbers after ± are expanded uncertainties.

Settings: Liquid; for mass density: vibrating tube; for viscosity: Stony Brook Scientific falling needle HPHTV-100 viscometer

CCCCCCn1cc[n+](C)c1.F[B-](F)(F)F [1-hexyl-3-methylimidazolium tetrafluoroborate]
Settings	mass density [kg/m3]	viscosity [mPa·s]
283.15 K, 100 kPa	1155.97 ± 0.97	–
283.15 K, 2000 kPa	1156.84 ± 0.96	–
283.15 K, 4000 kPa	1157.76 ± 0.96	–
283.15 K, 6000 kPa	1158.69 ± 0.98	–
283.15 K, 8000 kPa	1159.61 ± 0.96	–
283.15 K, 10000 kPa	1160.53 ± 0.96	–
283.15 K, 12000 kPa	1161.43 ± 0.96	–
283.15 K, 14000 kPa	1162.34 ± 0.96	–
283.15 K, 20000 kPa	1165.02 ± 0.95	–
283.15 K, 30000 kPa	1169.4 ± 0.96	–
283.15 K, 40000 kPa	1173.6 ± 0.96	–
283.15 K, 50000 kPa	1177.7 ± 0.96	–
283.15 K, 60000 kPa	1181.65 ± 0.97	–
285.09 K, 4270 kPa	–	449.6 ± 50
285.15 K, 130 kPa	–	420.5 ± 46
285.15 K, 1400 kPa	–	430.2 ± 47
285.15 K, 3170 kPa	–	437 ± 48
285.15 K, 5380 kPa	–	457.2 ± 52
285.15 K, 12640 kPa	–	495.6 ± 54
285.2 K, 5080 kPa	–	447.9 ± 49
285.22 K, 12000 kPa	–	488.4 ± 54
285.23 K, 7090 kPa	–	460.6 ± 51
285.23 K, 10000 kPa	–	481.6 ± 53
285.23 K, 14220 kPa	–	504.9 ± 56
285.25 K, 8290 kPa	–	468.5 ± 52
288.15 K, 100 kPa	1152.44 ± 0.97	–
288.15 K, 2000 kPa	1153.37 ± 0.96	–
288.15 K, 4000 kPa	1154.32 ± 0.96	–
288.15 K, 6000 kPa	1155.11 ± 0.96	–
288.15 K, 8000 kPa	1156.19 ± 0.96	–
288.15 K, 10000 kPa	1157.11 ± 0.96	–
288.15 K, 12000 kPa	1158.05 ± 0.96	–
288.15 K, 14000 kPa	1158.97 ± 0.96	–
288.15 K, 20000 kPa	1161.68 ± 0.96	–
288.15 K, 30000 kPa	1166.05 ± 0.96	–
288.15 K, 40000 kPa	1170.31 ± 0.96	–
288.15 K, 50000 kPa	1174.45 ± 0.97	–
288.15 K, 60000 kPa	1178.4 ± 0.97	–
293.15 K, 100 kPa	1148.92 ± 0.96	–
293.15 K, 2000 kPa	1149.88 ± 0.97	–
293.15 K, 4000 kPa	1150.84 ± 0.96	–
293.15 K, 6000 kPa	1151.81 ± 0.95	–
293.15 K, 8000 kPa	1152.76 ± 0.96	–
293.15 K, 10000 kPa	1153.7 ± 0.96	–
293.15 K, 12000 kPa	1154.65 ± 0.96	–
293.15 K, 14000 kPa	1155.57 ± 0.96	–
293.15 K, 20000 kPa	1158.32 ± 0.96	–
293.15 K, 30000 kPa	1162.74 ± 0.96	–
293.15 K, 40000 kPa	1167.02 ± 0.96	–
293.15 K, 50000 kPa	1171.16 ± 0.96	–
293.15 K, 60000 kPa	1175.18 ± 0.96	–
294.65 K, 14670 kPa	–	285.1 ± 35
294.75 K, 8260 kPa	–	261.3 ± 32
294.75 K, 10200 kPa	–	270.5 ± 33
294.75 K, 12300 kPa	–	278.6 ± 34
294.77 K, 6430 kPa	–	254.4 ± 28
294.85 K, 140 kPa	–	238.3 ± 29
294.85 K, 760 kPa	–	238.2 ± 29
294.85 K, 2760 kPa	–	242.5 ± 30
294.85 K, 4280 kPa	–	246.6 ± 30
294.91 K, 1460 kPa	–	238.3 ± 29
298.15 K, 100 kPa	1145.47 ± 0.96	–
298.15 K, 2000 kPa	1146.39 ± 0.96	–
298.15 K, 4000 kPa	1147.43 ± 0.96	–
298.15 K, 6000 kPa	1148.36 ± 0.96	–
298.15 K, 8000 kPa	1149.29 ± 0.96	–
298.15 K, 10000 kPa	1150.27 ± 0.96	–
298.15 K, 12000 kPa	1151.22 ± 0.96	–
298.15 K, 14000 kPa	1152.19 ± 0.96	–
298.15 K, 20000 kPa	1154.94 ± 0.96	–
298.15 K, 30000 kPa	1159.42 ± 0.95	–
298.15 K, 40000 kPa	1163.75 ± 0.95	–
298.15 K, 50000 kPa	1167.96 ± 0.96	–
298.15 K, 60000 kPa	1172.02 ± 0.96	–
300.25 K, 1630 kPa	–	179.8 ± 21
300.39 K, 2690 kPa	–	180.5 ± 20
300.42 K, 14380 kPa	–	210.1 ± 24
300.49 K, 4140 kPa	–	184.2 ± 21
300.61 K, 6190 kPa	–	187 ± 21
300.61 K, 12340 kPa	–	202.5 ± 23
300.62 K, 8490 kPa	–	191.3 ± 22
300.68 K, 10400 kPa	–	196.1 ± 22
300.75 K, 1410 kPa	–	175.2 ± 20
300.85 K, 120 kPa	–	168.1 ± 19
303.15 K, 100 kPa	1141.99 ± 0.96	–
303.15 K, 2000 kPa	1142.93 ± 0.96	–
303.15 K, 4000 kPa	1143.92 ± 0.96	–
303.15 K, 6000 kPa	1144.93 ± 0.96	–
303.15 K, 8000 kPa	1145.93 ± 0.96	–
303.15 K, 10000 kPa	1146.85 ± 0.96	–
303.15 K, 12000 kPa	1147.82 ± 0.96	–
303.15 K, 14000 kPa	1148.83 ± 0.96	–
303.15 K, 20000 kPa	1151.57 ± 0.96	–
303.15 K, 30000 kPa	1156.18 ± 0.95	–
303.15 K, 40000 kPa	1160.55 ± 0.96	–
303.15 K, 50000 kPa	1164.76 ± 0.96	–
303.15 K, 60000 kPa	1168.87 ± 0.96	–
308.15 K, 100 kPa	1138.53 ± 0.96	–
308.15 K, 2000 kPa	1139.5 ± 0.96	–
308.15 K, 4000 kPa	1140.49 ± 0.95	–
308.15 K, 6000 kPa	1141.48 ± 0.95	–
308.15 K, 8000 kPa	1142.48 ± 0.95	–
308.15 K, 10000 kPa	1143.45 ± 0.95	–
308.15 K, 12000 kPa	1144.45 ± 0.95	–
308.15 K, 14000 kPa	1145.41 ± 0.95	–
308.15 K, 20000 kPa	1148.24 ± 0.95	–
308.15 K, 30000 kPa	1152.83 ± 0.95	–
308.15 K, 40000 kPa	1157.26 ± 0.95	–
308.15 K, 50000 kPa	1161.57 ± 0.95	–
308.15 K, 60000 kPa	1165.72 ± 0.95	–
308.25 K, 1850 kPa	–	114.6 ± 14
308.35 K, 14230 kPa	–	131.8 ± 15
308.48 K, 12350 kPa	–	128.7 ± 14
308.55 K, 10300 kPa	–	125.6 ± 14
308.59 K, 8230 kPa	–	122.7 ± 14
308.65 K, 110 kPa	–	112.3 ± 12
308.65 K, 800 kPa	–	113 ± 12
308.65 K, 1730 kPa	–	114.4 ± 14
308.65 K, 2760 kPa	–	115.1 ± 13
308.65 K, 4300 kPa	–	117.5 ± 13
308.65 K, 6380 kPa	–	120.2 ± 13
313.15 K, 100 kPa	1135.1 ± 0.95	–
313.15 K, 2000 kPa	1136.08 ± 0.95	–
313.15 K, 4000 kPa	1137.11 ± 0.95	–
313.15 K, 6000 kPa	1138.14 ± 0.95	–
313.15 K, 8000 kPa	1139.15 ± 0.95	–
313.15 K, 10000 kPa	1140.14 ± 0.95	–
313.15 K, 12000 kPa	1141.13 ± 0.95	–
313.15 K, 14000 kPa	1142.09 ± 0.95	–
313.15 K, 20000 kPa	1144.98 ± 0.94	–
313.15 K, 30000 kPa	1149.62 ± 0.94	–
313.15 K, 40000 kPa	1154.1 ± 0.94	–
313.15 K, 50000 kPa	1158.44 ± 0.95	–
313.15 K, 60000 kPa	1162.62 ± 0.95	–
318.15 K, 100 kPa	1131.72 ± 0.95	–
318.15 K, 2000 kPa	1132.7 ± 0.95	–
318.15 K, 4000 kPa	1133.74 ± 0.95	–
318.15 K, 6000 kPa	1134.77 ± 0.95	–
318.15 K, 8000 kPa	1135.78 ± 0.95	–
318.15 K, 10000 kPa	1136.79 ± 0.95	–
318.15 K, 12000 kPa	1137.78 ± 0.95	–
318.15 K, 14000 kPa	1138.79 ± 0.95	–
318.15 K, 20000 kPa	1141.71 ± 0.95	–
318.15 K, 30000 kPa	1146.4 ± 0.94	–
318.15 K, 40000 kPa	1150.92 ± 0.98	–
318.15 K, 50000 kPa	1155.3 ± 0.95	–
318.15 K, 60000 kPa	1159.5 ± 0.95	–
319.85 K, 2700 kPa	–	70.1 ± 8.1
319.89 K, 110 kPa	–	67.7 ± 7.9
319.95 K, 700 kPa	–	68.1 ± 7.9
319.95 K, 4470 kPa	–	70.7 ± 8.2
319.95 K, 6480 kPa	–	72.9 ± 8.4
319.95 K, 14430 kPa	–	77.8 ± 9.1
319.98 K, 3850 kPa	–	70.5 ± 8.2
319.98 K, 12490 kPa	–	76.1 ± 8.9
319.99 K, 8440 kPa	–	73.7 ± 8.5
320.03 K, 1300 kPa	–	68.2 ± 7.9
320.05 K, 2440 kPa	–	69.2 ± 8
320.05 K, 10500 kPa	–	74.9 ± 8.7
323.15 K, 100 kPa	1128.3 ± 0.95	–
323.15 K, 2000 kPa	1129.31 ± 0.95	–
323.15 K, 4000 kPa	1130.36 ± 0.95	–
323.15 K, 6000 kPa	1131.4 ± 0.95	–
323.15 K, 8000 kPa	1132.43 ± 0.95	–
323.15 K, 10000 kPa	1133.45 ± 0.95	–
323.15 K, 12000 kPa	1134.46 ± 0.95	–
323.15 K, 14000 kPa	1135.46 ± 0.95	–
323.15 K, 20000 kPa	1138.4 ± 0.95	–
323.15 K, 30000 kPa	1143.16 ± 0.98	–
323.15 K, 40000 kPa	1147.2 ± 1	–
323.15 K, 50000 kPa	1152.14 ± 0.98	–
323.15 K, 60000 kPa	1156.42 ± 0.95	–
